Reference: patent publication US20250002854A1, “METHODS OF GENERATING POPULATIONS OF TUMOUR-INFILTRATING T CELLS” (LYTIX BIOPHARMA AS, priority 2016, published 2025)
Square brackets hold non-standard residues; d marks the D form. Ends that are not written are not given here. Dip = N[C@H](C(=O)O)C(c1ccccc1)c1ccccc1

Test system: A375 cells
Assay: Confocal microscopy, internalization of fluorescence-labeled peptide
Format: cell-based, human
Experimental: The A375 cell line A375 (ECACC, 88113005) is a human malignant melanoma derived from patient material, and was purchased from Public Health England (PHE Culture Collections, Porton Down, Salisbury, UK). Cells were maintained as monolayer cultures in high glucose […] DMEM supplemented with 10% FBS and 1% L-glutamine, but not as antibiotics (complete media). The cell line was grown in a humidified 5% CO2 atmosphere at 37° C., and was regularly tested for the presence of mycoplasma with MycoAlert (Lonza).
Fixed cells, fluorescence-labeled peptide—Subconfluential A375 cells were seeded at 8,000 cells/well as above, and transfected on the second day using the Lipofectamine LTX with Plus transfection reagents (Invitrogen) following the manufacturer's protocol. The mitochondria were labeled using the pDsRed2-Mito, and the nucleus was labeled using the GFP-Histon2B plasmid (Imaging Platform, University of Tromsø). A day after transfection, cells were washed twice with serum-free RPMI, and treated at different concentration and incubation periods with LTX-315 Pacific Blue or LTX-328 Pacific Blue. […] Control cells were treated with unlabeled LTX-315 and also with serum-free RPMI only. After incubation, cells were fixed with 4% paraformaldehyde in PBS, and the wells were covered with Prolong Gold antifade (Invitrogen). Cells were further analyzed by use of a Leica TCS SP5 confocal microscope, with a […] objective. Pacific Blue, GFP and Ds Red were excited using UV, with 488 and 561 lasers, and fluorescence channels were sequentially detected using the following band passes: UV: 420-480 nm (with attenuation), 488: 501-550 nm and 561: 576-676 nm.

With “KAQ[Dip]QKQAW-NH2 [LTX-328, reference compound]” as the substance, how does the internalization of peptide (3 μM, 60 min) read?
The internalization of peptide was “not internalized”.

And the “internalization of Pacific Blue-labelled peptide” value (A375 cells, 3 μM and 1.5 μM)?
Its value is “did not demonstrate any internalization”.
